Data published in paper PMC12316891, “A bottom-up approach to find lead compounds in expansive chemical spaces” (Communications Chemistry, 2025).
Read-outs that look alike come from different tables or passages of the source.

Tests used:
BRD4 (BD1) [1] = molecular target: T1, BRD4 (BD1) (Homo sapiens, UniProt O60885); assay: Competitive HTRF TR-FRET binding assay (displacement of acetylated histone H4 peptide)
T1 construct: A pET28 plasmid containing residues 44–168 of BRD4 (BD1), a 6xHis tag, a TEV protease cleavage site; 6xHis (N, cleaved yes); made in house; host or cells: E. coli Rosetta (D3)
Protocol: To further quantitatively characterize the DSF/SPR hits compounds obtained in the single-dose screenings, we selected HTRF TR-FRET. Specifically, we employed a competitive HTRF TR-FRET experiment to measure the compound’s capacity to displace an acetylated peptide from the binding site of BRD4 (BD1). For each molecule, a 16-point concentration curve was titrated against the peptide-BRD (BD1) complex and incubated for 1.5 h. A compound was considered a positive binder if we could fit its titration curve to a sigmoidal curve to determine its IC50. […] Compound screening was carried out in 384-well, white, round-bottom, small-volume plates (CORNING) in a final volume of 20 µL of 50 mM HEPES (pH 7.4), 50 mM NaCl, 400 mM KF, 0.5 mM CHAPS, and 0.05% BSA. […] Then, the labeled anti-His6-XL665 antibody (CisBio) (10 nM) was added to the mixture and incubated for 15 min, before the Eu3+ cryptate-conjugated streptavidin (2 nM) (CisBio) was added and incubated for 15 min. All incubations were performed at room temperature. […] Titration of (+)−JQ1 was used as a positive control for each experiment.

His6-BRD4 (BD1) = molecular target: T2, His6-BRD4 (BD1) (Homo sapiens, UniProt O60885); assay: Surface plasmon resonance (SPR) single-dose screening; assay type: binding; design: key to SPR RESULT: Positive: compounds were considered as SPR hits also when their average signal was further than two standard deviations apart from the average signal of the blank samples (1% DMSO); settings: for RUs at [10 µM]: SPR, compound 10 µM, 1% DMSO, n = 2, decimal comma; for SPR RESULT: single dose 10 µM, n = 2
T2 construct: A pET28 plasmid containing residues 44–168 of BRD4 (BD1), a 6xHis tag, a TEV protease cleavage site; made in house; host or cells: E. coli Rosetta (D3)

BRD4 (BD1) [2] = molecular target: T1, BRD4 (BD1); assay: Differential scanning fluorimetry (DSF) single-dose thermal shift screening; assay type: binding; settings: for ΔTm at 10 µM: read-out: ΔTm ºC at [10 µM]
[3] = 16-point titration 0.1 nM to 10 µM, n = 2, Negative = curve could not be fitted to a sigmoidal curve
[4] = DSF, compound 10 µM, BRD4 (BD1) 2 µM, n = 3, decimal comma
[5] = 16-point titration 0.1 nM to 10 µM, n = 2, Negative = curve could not be fitted to a sigmoidal curve, read-out: TR-FRET IC50

Compound | TR-FRET IC50 (nM) (BRD4 (BD1) [1]; [3]) | RUs at [10 µM] (His6-BRD4 (BD1)) | SPR RESULT (His6-BRD4 (BD1)) | ΔTm at 10 µM (BRD4 (BD1) [2]; [4]) | IC50 (BRD4 (BD1) [1]; [5]) | IC50 by HTRF TR-FRET, range in words (BRD4 (BD1) [1]; potency range or dose-response behaviour) | IC50 (BRD4 (BD1) [1]) | ΔTm ºC at [10 µM] (BRD4 (BD1) [2]; [4]) | ΔTm at 10 µM (BRD4 (BD1) [2])
COc1cccc(-n2c(C)nnc2SCC(=O)N2CCCN(C(=O)c3cc(F)c[nH]3)CC2)c1 [Compound 30, COC=1C=CC=C(C1)N2C(C)=NN=C2SCC(=O)N3CCCN(CC3)C(=O)C4=CC(F)=CN4] | Negative | 17,68 ± 18,73 RUs | Negative | 0.43 °C |  |  |  |  | 
Cc1nnc(NC(=O)NCc2cccc(C(=O)NCC3CCCO3)c2)s1 (stereo not shown) [Compound 73, CC1=NN=C(NC(=O)NCC=2C=CC=C(C2)C(=O)NCC3CCCO3)S1] |  | 23,59 ± 6,69 RUs | Positive | 1.13 °C | 10700 nM |  |  |  | 
Cc1cc(C)n2c(CNc3ccc(C)c(NC(=O)CN4CCCCC4)c3)cnc2n1 [Compound 67, CC=1C=C(C)N2C(CNC=3C=CC(C)=C(NC(=O)CN4CCCCC4)C3)=CN=C2N1] |  | 28,42 ± 2,09 RUs | Positive | 0.81 °C | 3.72 nM | low nM |  |  | 
CNC(=O)c1ccc(-n2nc(Cn3cccn3)nc2-c2cn(C)c(=O)c3ccccc23)cc1 [Compound 50, CNC(=O)C=1C=CC(=CC1)N2N=C(CN3C=CC=N3)N=C2C4=CN(C)C(=O)C=5C=CC=CC45] |  | 10,43 ± 9,29 RUs | Negative | 2.29 °C | 1130 nM |  |  |  | 
Cc1ncc(C(=O)NCCn2cc(Cn3c(C)nc4ccccc43)nn2)c(=O)[nH]1 [Compound 83, CC1=NC=2C=CC=CC2N1CC3=CN(CCNC(=O)C4=CN=C(C)NC4=O)N=N3] |  | 14,05 ± 12,27 RUs | Negative | 0.78 °C | 325 nM |  |  |  | 
COc1ccc(-n2c(C)nnc2SCC(=O)N2CC3(CCN(C)CC3)C2)cc1 [Compound 45, COC=1C=CC(=CC1)N2C(C)=NN=C2SCC(=O)N3CC4(C3)CCN(C)CC4] | Negative | 9,8 ± 3,73 RUs | Negative | 2.18 °C |  |  |  |  | 
CN(Cc1cccc(OC(F)F)c1)C(=O)C(=O)NC1CCN(C(=O)c2ccco2)c2ccccc21 (stereo not shown) [Compound 86, CN(CC=1C=CC=C(OC(F)F)C1)C(=O)C(=O)NC2CCN(C(=O)C3=CC=CO3)C=4C=CC=CC24] | Negative | 56,94 ± 25,46 RUs | Negative | 0.94 °C |  |  |  |  | 
COc1ccc(-n2c(C)nnc2SCC(=O)Nc2ccc(C)c(Cl)c2Cl)cc1 [Compound 55, COC=1C=CC(=CC1)N2C(C)=NN=C2SCC(=O)NC=3C=CC(C)=C(Cl)C3Cl] |  | 11,56 ± 1,14 RUs | Positive |  |  |  | 1020 nM | 3,66 ± 0,12 ºC | 
COc1cccnc1C(=O)N1CCC2(CC(NC(=O)c3occc3Br)c3ccccc3O2)C1 (stereo not shown) [Compound 66, COC=1C=CC=NC1C(=O)N2CCC3(C2)CC(NC(=O)C=4OC=CC4Br)C=5C=CC=CC5O3] |  | 20,41 ± 1,87 RUs | Positive | 0.83 °C | 136 nM |  |  |  | 
COc1cccc(-n2c(C)nnc2SCC(=O)NC2(CO)CCCCCCC2)c1 [Compound 27, COC=1C=CC=C(C1)N2C(C)=NN=C2SCC(=O)NC3(CO)CCCCCCC3] | Negative | 28,33 ± 20,88 RUs | Negative |  |  |  |  |  | -0.98 °C
Cc1nnc(NC(=O)C2CCCN(C(=O)c3ccc(Br)c(F)c3)C2)s1 (stereo not shown) [Compound 79, CC1=NN=C(NC(=O)C2CCCN(C2)C(=O)C=3C=CC(Br)=C(F)C3)S1] | Negative | 33,58 ± 5,55 RUs | Positive | 1.21 °C |  |  |  |  | 
CCn1nnc2cc(C(=O)N3CCC(N(C)C(=O)C4CN(C)CCO4)C3)ccc21 (stereo not shown) [Compound 36, CCN1N=NC=2C=C(C=CC12)C(=O)N3CCC(C3)N(C)C(=O)C4CN(C)CCO4] | Negative | 6,83 ± 2,31 RUs | Negative | 0.34 °C |  |  |  |  | 
Cn1cc(C(=O)Nc2ccc(OCc3cnccn3)cc2)c2ccccc2c1=O [Compound 42, CN1C=C(C(=O)NC=2C=CC(OCC=3C=NC=CN3)=CC2)C=4C=CC=CC4C1=O] |  | 34,2 ± 10,95 RUs | Positive | 1.04 °C | 169 nM |  |  |  | 
CCn1nnc2cc(C(=O)N3C[C@@H](OC(C)=O)[C@@H](n4cc(CN5CCC(O)CC5)nn4)C3)ccc21 [Compound 95, CCN1N=NC=2C=C(C=CC12)C(=O)N3C[C@@H](OC(=O)C)[C@H](C3)N4C=C(CN5CCC(O)CC5)N=N4] | Negative | 14,42 ± 2,9 RUs | Positive | 0.19 °C |  |  |  |  | 
COc1ccc(-n2c(C)nnc2SCC(=O)NCC2(N)CCOCC2)cc1 [Compound 28, COC=1C=CC(=CC1)N2C(C)=NN=C2SCC(=O)NCC3(N)CCOCC3] | Negative | 16,66 ± 3,56 RUs | Positive | 0.36 °C |  |  |  |  | 
Cc1nn(C)cc1C(=O)NC1CCC2(CC1)CCN(C(=O)c1sc3nnc(C)c(C)c3c1N)CC2 [Compound 24, CC1=NN(C)C=C1C(=O)NC2CCC3(CC2)CCN(CC3)C(=O)C=4SC=5N=NC(C)=C(C)C5C4N] |  | 40,95 ± 7,16 RUs | Positive | 2.35 °C | 1760 nM |  |  |  | 
COc1ccc(C2(NCC(=O)Nc3cc(-n4nnnc4C)ccc3F)CCOCC2)cc1 [Compound 18, COC=1C=CC(=CC1)C2(CCOCC2)NCC(=O)NC=3C=C(C=CC3F)N4N=NN=C4C] |  | 2,91 ± 1,98 RUs | Negative | -0.7 °C | 1140 nM |  |  |  | 
CCCc1c(C(=O)N2CCC(Cc3cn(C4CC4)nn3)CC2)[nH]c(C)c1C(C)=O [Compound 54, CCCC1=C(NC(C)=C1C(=O)C)C(=O)N2CCC(CC3=CN(N=N3)C4CC4)CC2] |  | 17,03 ± 5,1 RUs | Negative | 2.91 °C | 277 nM |  |  |  | 
COc1cccc(-n2c(C)nnc2SCC(=O)N2CC3CCC2CN3C(=O)c2ccns2)c1 (stereo not shown) [Compound 35, COC=1C=CC=C(C1)N2C(C)=NN=C2SCC(=O)N3CC4CCC3CN4C(=O)C5=CC=NS5] |  | 13,78 ± 5,32 RUs | Negative | 0.69 °C | 1070 nM |  |  |  | 
O=C(Nc1cccc(C(=O)N2CCC(Cn3cc(C4(O)CCOCC4)nn3)CC2)c1)c1ccco1 [Compound 84, OC1(CCOCC1)C2=CN(CC3CCN(CC3)C(=O)C=4C=CC=C(NC(=O)C5=CC=CO5)C4)N=N2] |  | 17,5 ± 1,9 RUs | Positive | 1.16 °C | 18.1 nM |  |  |  | 
Cc1ncc(CNC(=O)NCc2cccc(S(=O)(=O)NC(C)C)c2)c(O)n1 [Compound 72, CC(C)NS(=O)(=O)C=1C=CC=C(CNC(=O)NCC=2C=NC(C)=NC2O)C1] |  | 19,09 ± 5,61 RUs | Positive | 0.51 °C | 92.9 nM |  |  |  | 
CC(=O)c1c(C)[nH]c(C(=O)N2CCCC(c3cn(CC4CC5CC5C4)nn3)C2)c1C (stereo not shown) [Compound 29, CC(=O)C1=C(C)NC(C(=O)N2CCCC(C2)C3=CN(CC4CC5CC5C4)N=N3)=C1C] | Negative |  | Negative | -1.17 °C |  |  |  |  | 
CCCc1c(C(=O)N2CCC(Cc3cn(-c4cccc(F)c4C)nn3)C2)[nH]c(C)c1C(C)=O (stereo not shown) [Compound 33, CCCC1=C(NC(C)=C1C(=O)C)C(=O)N2CCC(CC3=CN(N=N3)C=4C=CC=C(F)C4C)C2] | Negative | 8,85 ± 1,09 RUs | Negative | 0.1 °C |  |  |  |  | 
Cc1nnc2sc(C(=O)N(C)C3CN(C(=O)CCC(C)N(C)C)CC34CC4)c(N)c2c1C (stereo not shown) [Compound 59, CC(CCC(=O)N1CC(N(C)C(=O)C=2SC=3N=NC(C)=C(C)C3C2N)C4(CC4)C1)N(C)C] | Negative | 13,73 ± 9,32 RUs | Negative | 4.12 °C |  |  |  |  | 
Cc1nnc2sc(C(=O)N3CCC4(CCC(NC(=O)Cc5csc(Cl)c5)CC4)CC3)c(N)c2c1C [Compound 60, CC=1N=NC=2SC(C(=O)N3CCC4(CCC(CC4)NC(=O)CC5=CSC(Cl)=C5)CC3)=C(N)C2C1C] | Negative | 48,37 ± 15,77 RUs | Positive | 0.94 °C |  |  |  |  | 
COc1cc2c(cc1-c1c(C)noc1C)ncc1[nH]c(=O)n([C@H](C)c3ccccn3)c12 [Compound 2, CC1=C(C(=NO1)C)C2=C(C=C3C(=C2)N=CC4=C3N(C(=O)N4)C(C)C5=CC=CC=N5)OC, reference compound] |  | 95,35 ± 25,76 RUs |  |  |  |  |  |  | 
Cc1cc(C)n2nc(NC(=O)N3CCC(F)(F)C4(CCOC4)C3)nc2n1 (stereo not shown) [Compound 68, CC=1C=C(C)N2N=C(NC(=O)N3CCC(F)(F)C4(CCOC4)C3)N=C2N1] |  | 9,66 ± 4,71 RUs | Negative | 1.11 °C |  |  |  |  | 
Cc1sc2c(c1C)C(c1ccc(Cl)cc1)=NC(CC(=O)OC(C)(C)C)c1nnc(C)n1-2 (stereo not shown) [Compound 3, CC1=C(SC2=C1C(=NC(C3=NN=C(N32)C)CC(=O)OC(C)(C)C)C4=CC=C(C=C4)Cl)C, reference compound] |  | 99,15 ± 6,82 RUs |  |  |  |  |  |  | 9.28 °C
